The text below walks through data of patent US12263192B2, “Compositions for management of disorders of the gastrointestinal tract” (PanTheryx, Inc., priority 2019, dated 2025).

The test system of test [1] is RIE cells. The experiment in a line: Cell proliferation assay in RIE cells. The test is classed as cell-based, rat. To be noted: vs SFM, standard colostrum or ZnC. How it is done: Human gastrointestinal cells (AGS cells) or rat intestinal epithelial cells (RIE cells) are seeded at 2000 cells/well in an appropriate growth medium containing glutamine and 10% foetal calf serum in 96 well plates overnight. The following day, cells are washed twice with serum-free medium and then incubated in serum-free medium alone (SFM negative control) or also containing colostrum at various concentrations or epidermal growth factor (EGF, positive control) overnight. The following day ALAMARBLUE™ is added to each well. ALAMARBLUE™ is a coloured substrate that changes colour from blue to pink in response to cellular metabolic reduction. This change can be determined by reading the absorbance of the wells at 570 nm using a spectrophotometer at 0 h when the substrate is added and 4 hours later.

For test [2], the system named is rotavirus infection in MA-104 cells. As to conditions: cited from earlier work.
Test [3] relates to AGS cells. The experiment in a line: Cell migration assay (wounded monolayers) of egg and/or colostrum, Example 8A. Format: cell-based, human. As to conditions: purified protein. How it is done:
Cell migration assays were performed using our previously published methods. Marchbank et al., Am J Physiol Gastrointest Liver Physiol. 2009; 296:[…]-703. Briefly, confluent monolayers had standard wounds inflicted and serial photomicrographs taken. Twenty measurements per field were performed by placing a transparent grid over the photograph and measuring the distance moved from the original wound line. All results are expressed as mean (SEM) of four separate experiments. Whole powdered egg and colostrum (0.25-4 mg/ml) was added to cells and effect on proliferation and cell migration analysed. Additional studies compared “pure” yolk and egg white powder (1 mg powder/ml) along with separated yolk and white from fresh eggs (added at same protein concentration as equivalent powder) and also compared uncooked egg powder and whole fresh egg that had been heated to 100° C. for 8 minutes (samples placed in 50 ml falcon tube in waterbath, followed by homogenisation) prior to addition to cells. […] This 40:60 proportion was used to reproduce the product currently commercially available and used in trials of infectious diarrhoea. Gaensbauer et al. BMJ Glob Health. 2017; 2:e000452. […]

Test [4] deals with AGS cells. In words: Proliferation assay (ALAMARBLUE) of egg and/or colostrum, Example 8A. Format: cell-based, human. How it is done:
Cell proliferation assays were performed as previously described, utilising ALAMARBLUETM (Invitrogen, Paisley, UK), (Marchbank et al., Am J Physiol Gastrointest Liver Physiol. 2009; 296:[…]-703) as per manufacturer's instructions. Briefly, cells were seeded at 2000 cells/well, grown in medium and 10% FCS in 96 well plates overnight. The following day, cells were washed with medium alone and incubated in medium alone (negative control), medium containing epidermal growth factor (EGF, 1 μg/ml, positive control) or egg and colostrum combination. BSA was added to additional wells as a further negative control. Data are expressed as % positive control where the rise in proliferation (increase in A570 above baseline) caused by […] of EGF was defined as 100%. Whole powdered egg and colostrum (0.25-4 mg/ml) was added to cells and effect on proliferation and cell migration analysed. Additional studies compared “pure” yolk and egg white powder (1 mg powder/ml) along with separated yolk and white from fresh eggs (added at same protein concentration as equivalent powder) and also compared uncooked egg powder and whole fresh egg that had been heated to 100° C. for 8 minutes (samples placed in 50 ml falcon tube in waterbath, followed by homogenisation) prior to addition to cells. […] This 40:60 proportion was used to reproduce the product currently commercially available and used in trials of infectious diarrhoea. Gaensbauer et al. BMJ Glob Health. 2017; 2:e000452. The importance of the EGFR and TGFβ in mediating proliferative and migratory effects was examined by adding whole egg powder (1 mg/ml, w/v) to cells in the presence and absence of tyrphostin (100 nM) and a TGFβ ([…]) neutralising antibody (antibodies-online.com, Aachen, Germany). Additional samples examined the effect of pure ovomucoid (25-100 μg/ml) and ovalbumin (50-400 μg/ml) on proliferation and migration. To further examine the contribution of ovomucoid and ovalbumin in mediating the proliferative and migratory activity seen using whole egg powder, further wells had egg powder added (1 mg/ml) in the presence of anti-ovomucoid and ovalbumin antibodies (Generon, Slough, Berkshire, UK) at 1 μg/ml.

Test [5] deals with these cell lines. To be noted: cited from earlier work.
In test [6] the test system is rotavirus. To be noted: pediatric patients; 3 day course; 7.5 mg/kg suspension; cited from earlier work.

With zinc carnosine, the “cell proliferation (A570 nm), comparison in words” value in test [1] is given as “stimulate cell proliferation”.

For the molecule `O=c1cc(-c2ccc(O)c(O)c2)oc2cc(O)cc(O)c12` [luteolin], the “antiviral activity against rotavirus infection” value in test [2] is on record as “antiviral activity”.

“ovalbumin: purified ovalbumin, 42 kDa egg white protein”: the “cell migration dose-response, in words” value in test [3] (50-400 μg/ml) is on record as “increasing activity up to the highest dose”. The “effect on proliferation and migration” value in test [4] (pure isolated ovalbumin at 400 µg/mL) is listed as “major stimulatory effect”. Also, in test [4] (purified protein, 50-400 μg/ml), the “cell proliferation dose-response, in words” value is listed as “increasing activity up to the highest dose”.

In the case of soya bean trypsin inhibitor, the proliferation or migration result in test [5] was “does not increase proliferation or migration”.

`CC(=O)Oc1ccccc1C(=O)Nc1ncc([N+](=O)[O-])s1` [Nitazoxanide]: the “duration of rotavirus disease” value in test [6] was “effective to reduce the duration of rotavirus disease”.

Regarding `O=c1cc(-c2ccc(O)cc2)oc2cc(O[C@@H]3O[C@H](CO)[C@@H](O)[C@H](O)[C@H]3O)cc(O)c12` [apigenin 7-O-glucoside], in test [2], the “antiviral activity against rotavirus infection” value was “antiviral activity”.

B1: ovomucoid: purified ovomucoid, 28 kDa egg white protein with trypsin inhibitor activity (protein, UniProt P01005 25-210, looked up)
Ovomucoid: AEVDCSRFPNATDKEGKDVLVCNKDLRPICGTDGVTYTNDCLLCAYSIEFGTNISKEHDGECKETVPMNCSSYANTTSEDGKVMVLCNRAFNPVCGTDGVTYDNECLLCAHKVEQGASVDKRHDGGCRKELAAVSVDCSEYPKPDCTAEDRPLCGSDNKTYGNKCNFCNAVVESNGTLTLSHFGKC
Consider B1, for which the “concentration of peak effect, cell migration” value in test [3] (dose-response 25-100 μg/ml) turned out to be 50 µg/mL. Moreover, the “share of total proliferative and migratory activity of whole egg” value in test [4] (from neutralising antibody studies) is “about 80%”. Also, in test [4] (purified protein, dose-response 25-100 μg/ml), the “concentration of peak effect, cell proliferation” value was 50 µg/mL.
